The values that follow come from patent publication US20110281896A1, “OPTICALLY PURE QUINAZOLINE COMPOUNDS” (Jiangsu Hansoh Pharmaceutical Co. Ltd, priority 2009, published 2011).

The IC50 is the concentration that inhibits the measured activity by half. The low end stands for greater potency, the high end for weaker potency.

The structures appear in SMILES notation.

One test relates to A431. Briefly: Antitumor activity in vitro, SRB cell proliferation inhibition. In kind it is cell-based. The conditions noted are these: 72 h incubation, Logit method. As to the method: (§1) Evaluation of Antitumor Activity In Vitro
(§2) Cell Strains: A431; MCF-7
(§3) Experiment Design: Cells were incubated with different concentrations of compounds for 72 hours. The inhibition of cell proliferation by the compounds was evaluated by SRB, followed by calculation of the inhibition rate. Then, value of IC50 was calculated by using-Logit method base on the inhibition rate and used to compare in vitro antitumor activity of the compounds.
(§4) Method for Calculating the Inhibition Rate: Inhibition rate (%)=(OD value of control group−OD value of drug group)/OD value of control group×100%

A further test concerns MCF-7. Described as above. Format: cell-based. The conditions noted are these: 72 h incubation, Logit method. As to the method:
as §1, §2, §3, §4

[1] abbreviates: Homo sapiens, A-431, A431 cells.
Setting [2] is: Homo sapiens, MCF7, MCF-7 cells.

In the case of `CCN(CC)[C@H](CS(C)(=O)=O)c1ccc(-c2ccc3ncnc(Nc4ccc(OCc5cccc(F)c5)c(Cl)c4)c3c2)o1` [Compound 98, (S)—N-(4-(3-fluorobenzyl-oxy)-3-chlorophenyl)-6-(5-(1-(N,N-diethyl-amino)-2-(methyl-sulfonyl)ethyl)furan-2-yl)quinazolin-4-amine], the IC50 in the test on A431 (setting [1]) was determined as 677 nM; in the test with MCF-7 (setting [2]) it was 7.66 µM.
The matching figures for `CCCN(CCC)[C@@H](CS(C)(=O)=O)c1ccc(-c2ccc3ncnc(Nc4ccc(OCc5cccc(F)c5)c(Cl)c4)c3c2)o1` [Compound 112, (R)—N-(4-(3-fluorobenzyl-oxy)-3-chlorophenyl)-6-(5-(1-(N,N-dipropyl-amino)-2-(methylsulfonyl)ethyl)furan-2-yl)quinazolin-4-amine]: 855 nM and 6.22 µM.
As to `CCN(C)[C@H](CS(C)(=O)=O)c1ccc(-c2ccc3ncnc(Nc4ccc(OCc5cccc(F)c5)c(Cl)c4)c3c2)o1` [Compound 100, (S)—N-(4-(3-fluorobenzyl-oxy)-3-chlorophenyl)-6-(5-(1-(N-methyl, N-ethyl-amino)-2-(methylsulfonyl)ethyl)furan-2-yl)quinazolin-4-amine], the IC50 was 489 nM with A431 (setting [1]) and 9.9 µM with MCF-7 (setting [2]).
The corresponding values for `CCCN(CCC)[C@H](CS(C)(=O)=O)c1ccc(-c2ccc3ncnc(Nc4ccc(OCc5cccc(F)c5)c(Cl)c4)c3c2)o1` [Compound 99, (S)—N-(4-(3-fluorobenzyl-oxy)-3-chlorophenyl)-6-(5-(1-(N,N-dipropyl-amino)-2-(methylsulfonyl)ethyl)furan-2-yl)quinazolin-4-amine] are 759 nM and 5.92 µM.
For the compound `C=CCN[C@H](CS(C)(=O)=O)c1cnc(-c2ccc3ncnc(Nc4ccc(OCc5cccc(F)c5)c(Cl)c4)c3c2)s1` [Compound 140], the IC50 in the test with A431 (A431 cells) was found to be 648 nM; in the test with MCF-7 (MCF-7 cells), 4.02 µM.
In the case of `CS(=O)(=O)C[C@H](N)c1ccc(-c2ccc3ncnc(Nc4ccc(OCc5cccc(F)c5)c(Cl)c4)c3c2)o1` [Compound 105, (R)—N-(4-(3-fluorobenzyl-oxy)-3-chlorophenyl)-6-(5-(1-(amino)-2-(methylsulfonyl)ethyl)furan-2-yl)quinazolin-4-amine], the IC50 with A431 (setting [1]) is 664 nM; in the test with MCF-7 (setting [2]), 7.87 µM.
Take `CN[C@H](CS(C)(=O)=O)c1ccc(-c2ccc3ncnc(Nc4ccc(OCc5cccc(F)c5)c(Cl)c4)c3c2)o1` [Compound 93, (S)—N-(4-(3-fluorobenzyl-oxy)-3-chlorphenyl)-6-(5-(1-(methylamino)-2-(methylsulfonyl)ethyl)furan-2-yl)quinazolin-4-amine]: the IC50 was found to be 460 nM in the test with A431 (A431 cells) and 8.86 µM in the test on MCF-7 (MCF-7 cells).
The corresponding values for `CN(C)[C@H](CS(C)(=O)=O)c1cnc(-c2ccc3ncnc(Nc4ccc(OCc5cccc(F)c5)c(Cl)c4)c3c2)s1` [Compound 136] are 449 nM and 5.43 µM.
Turning to `CCCN(CCC)[C@H](CS(C)(=O)=O)c1cnc(-c2ccc3ncnc(Nc4ccc(OCc5cccc(F)c5)c(Cl)c4)c3c2)s1` [Compound 138], the IC50 in the test on A431 (A431 cells) came out at 426 nM; with MCF-7 (MCF-7 cells) it was 4.6 µM.
The corresponding values for `CCN[C@H](CS(C)(=O)=O)c1cnc(-c2ccc3ncnc(Nc4ccc(OCc5cccc(F)c5)c(Cl)c4)c3c2)s1` [Compound 133] are 554 nM and 7.89 µM.
`CON[C@H](CS(C)(=O)=O)c1ccc(-c2ccc3ncnc(Nc4ccc(OCc5cccc(F)c5)c(Cl)c4)c3c2)o1` [Compound 103]: the values for the IC50 in the test on A431 (A431 cells) and in the test on MCF-7 (MCF-7 cells) were 479 nM and 8.82 µM, respectively.
As for `C=CCN[C@H](CS(C)(=O)=O)c1ccc(-c2ccc3ncnc(Nc4ccc5c(cnn5Cc5cccc(F)c5)c4)c3c2)o1` [Compound 153, (S)—N-(1-(3-fluorobenzyl)-1H-indazol-5-yl)-6-(5-(1-(allyl-amino)-2-(methylsulfonyl)ethyl)furan-2-yl)quinazolin-4-amine], the half-inhibitory concentration (IC50) stood at 857 nM with A431 (setting [1]) and 5.87 µM in the test on MCF-7 (setting [2]).
Take `CCCN(CCC)[C@H](CS(C)(=O)=O)c1ccc(-c2ccc3ncnc(Nc4ccc5c(cnn5Cc5cccc(F)c5)c4)c3c2)o1` [Compound 151]: the IC50 in the test with A431 (A431 cells) is 637 nM; with MCF-7 (MCF-7 cells), 6.08 µM.
`CCCN[C@H](CS(C)(=O)=O)c1ccc(-c2ccc3ncnc(Nc4ccc5c(cnn5Cc5cccc(F)c5)c4)c3c2)o1` [Compound 147, (S)—N-(1-(3-fluorobenzyl)-1H-indazol-5-yl)-6-(5-(1-(propylamino)-2-(methylsulfonyl)ethyl)furan-2-yl)quinazolin-4-amine]: the IC50 in the test with A431 (setting [1]) was 406 nM; in the test on MCF-7 (setting [2]), 8.01 µM.
As for `CON[C@@H](CS(C)(=O)=O)c1cnc(-c2ccc3ncnc(Nc4ccc(OCc5cccc(F)c5)c(Cl)c4)c3c2)s1` [Compound 129], the figures for the IC50 in the test with A431 (A431 cells) and with MCF-7 (MCF-7 cells) were 667 nM and 9.71 µM, respectively.
Take `CCN(C)[C@H](CS(C)(=O)=O)c1ccc(-c2ccc3ncnc(Nc4ccc5c(cnn5Cc5cccc(F)c5)c4)c3c2)o1` [Compound 152]: the IC50 in the test with A431 (A431 cells) stood at 601 nM; in the test with MCF-7 (MCF-7 cells), 6.54 µM.
For the compound `CS(=O)(=O)C[C@@H](N)c1ccc(-c2ccc3ncnc(Nc4ccc(OCc5cccc(F)c5)c(Cl)c4)c3c2)o1` [Compound 92, (S)—N-(4-(3-fluorobenzyl-oxy)-3-chlorophenyl)-6-(5-(1-(amino)-2-(methylsulfonyl)ethyl)furan-2-yl)quinazolin-4-amine], the IC50 in the test on A431 (setting [1]) was 422 nM; with MCF-7 (setting [2]), 9.34 µM.
With `CON(C)[C@@H](CS(C)(=O)=O)c1ccc(-c2ccc3ncnc(Nc4ccc(OCc5cccc(F)c5)c(Cl)c4)c3c2)o1` [Compound 117], the IC50 was 636 nM in the test with A431 (A431 cells) and 7.63 µM in the test with MCF-7 (MCF-7 cells).
The corresponding values for `CCN(CC)[C@H](CS(C)(=O)=O)c1ccc(-c2ccc3ncnc(Nc4ccc5c(cnn5Cc5cccc(F)c5)c4)c3c2)o1` [Compound 150] are 624 nM and 6.67 µM.
Regarding `CON(C)[C@H](CS(C)(=O)=O)c1ccc(-c2ccc3ncnc(Nc4ccc5c(cnn5Cc5cccc(F)c5)c4)c3c2)o1` [Compound 156], the IC50 in the test with A431 (A431 cells) was 428 nM; in the test with MCF-7 (MCF-7 cells) it was 5.52 µM.
Regarding `C#CCN[C@H](CS(C)(=O)=O)c1cnc(-c2ccc3ncnc(Nc4ccc(OCc5cccc(F)c5)c(Cl)c4)c3c2)s1` [Compound 141], the IC50 in the test with A431 (A431 cells) was 486 nM; with MCF-7 (MCF-7 cells), 7.62 µM.
For the compound `CON(C)[C@H](CS(C)(=O)=O)c1cnc(-c2ccc3ncnc(Nc4ccc(OCc5cccc(F)c5)c(Cl)c4)c3c2)s1` [Compound 143], the IC50 with A431 (A431 cells) worked out at 788 nM; with MCF-7 (MCF-7 cells) it was 5.09 µM.
Regarding `CCN[C@H](CS(C)(=O)=O)c1ccc(-c2ccc3ncnc(Nc4ccc5c(cnn5Cc5cccc(F)c5)c4)c3c2)o1` [Compound 146, (S)—N-(1-(3-fluorobenzyl)-1H-indazol-5-yl)-6-(5-(1-(ethylamino)-2-(methylsulfonyl)ethyl)furan-2-yl)quinazolin-4-amine], the figures for the IC50 with A431 (setting [1]) and with MCF-7 (setting [2]) were 489 nM and 5.46 µM, respectively.
The corresponding values for `CCN[C@H](CS(C)(=O)=O)c1ccc(-c2ccc3ncnc(Nc4ccc(OCc5cccc(F)c5)c(Cl)c4)c3c2)o1` [Compound 94, (S)—N-(4-(3-fluorobenzyl-oxy)-3-chlorophenyl)-6-(5-(1-(ethylamino)-2-(methylsulfonyl)ethyl)furan-2-yl)quinazolin-4-amine] are 652 nM and 7.85 µM.
